Test results as given in US9181193B2, “Indenoquinolone compound, preparation method and use thereof” (Second Military Medical University, PLA, priority 2010, dated 2015).
In brackets after ≈: the same amount, converted by molar mass.

How the values were obtained:
[1] = test system: human lung cancer cell line A549; test: Anti-tumor activity test in vivo, nude mouse model of A549; settings: nude mouse model of A549, dose of 1-200 mg/kg weight
Text: The activities of some compounds in vivo in the nude mouse model of human lung cancer cell line A549 were detected by using literature methods (WEI Hong. Medical Experiments Zoology. 2nd edition. Chengdu: Sichuan Science and Technology Press, 2001: 595-596).

[2] = test system: MDA-MB-435 (human breast cancer cells); test: MTT in vitro anti-tumor activity test, MDA-MB-435; type: cell-based; settings: for IC50: Homo sapiens, MDA-MB-435, 72 h, read-out: MDA-MB-435 IC50; for MDA-MB-435 100 μg/mL IC %: 72 h
[3] = test system: A549 (human lung cancer cells); test: MTT in vitro anti-tumor activity test, A549; type: cell-based; settings: for A549 100 μg/mL IC %: 72 h; for IC50: Homo sapiens, A549, 72 h, read-out: A549 IC50
[4] = test system: Colo205 (human colon cancer cells); test: MTT in vitro anti-tumor activity test, Colo205; type: cell-based; settings: for Colo205 100 μg/mL IC %: 72 h; for IC50: Homo sapiens, COLO 205, 72 h, read-out: Colo205 IC50
[5] = test system: HepG2 (human hepatoma cells); test: MTT in vitro anti-tumor activity test, HepG2; type: cell-based; settings: for HepG2 100 μg/mL IC %: 72 h; for IC50: Homo sapiens, HepG2, 72 h, read-out: HepG2 IC50
[6] = inhibition at 100 μg/mL, MTT assay, MDA-MB-435 cells
[7] = inhibition at 100 μg/mL, MTT assay, A549 cells
[8] = inhibition at 100 μg/mL, MTT assay, Colo205 cells
[9] = inhibition at 100 μg/mL, MTT assay, HepG2 cells

## COc1ccc2c(c1)C(=O)c1c-2c(OCCN(C)C)nc2ccccc12 [Compound 1]
[1]
  anti-tumor activity in vivo: good anti-tumor activity in vivo
[2]
  IC50: 1 µg/mL (≈ 2.87 µM)
[2]; MDA-MB-435, 100 μg/mL, MTT
  MDA-MB-435 100 μg/mL IC %: 95.81%
other
  melting point: 116 to 118 °C
[3]; A549, 100 μg/mL, MTT
  A549 100 μg/mL IC %: 100%
[3]
  IC50: 0.983 µg/mL (≈ 2.82 µM)
[4]; Colo205, 100 μg/mL, MTT
  Colo205 100 μg/mL IC %: 100%
[4]
  IC50: 0.621 µg/mL (≈ 1.78 µM)
[5]; HepG2, 100 μg/mL, MTT
  HepG2 100 μg/mL IC %: 99.40%
[5]
  IC50: 0.721 µg/mL (≈ 2.07 µM)

## COc1ccc2c(c1)C(=O)c1c-2c(=O)n(CCN(C)C)c2ccccc12 [Compound 31, 5-(2-dimethylaminoethyl)-9-methoxy-5H-indeno[1,2-c]quinoline-6,11-dione]
[2]
  IC50: 1.83 µg/mL (≈ 5.25 µM)
[2]; [6]
  MDA-MB-435 100 μg/mL IC %: 86.09%
other
  melting point: 198 to 200 °C
[3]
  IC50: 1.72 µg/mL (≈ 4.94 µM)
[3]; [7]
  A549 100 μg/mL IC %: 93.62%
[4]
  IC50: 1.2 µg/mL (≈ 3.44 µM)
[4]; [8]
  Colo205 100 μg/mL IC %: 88.35%
[5]
  IC50: 0.746 µg/mL (≈ 2.14 µM)
[5]; [9]
  HepG2 100 μg/mL IC %: 90.60%

## COc1ccc2c(c1)C(=O)c1c-2c(=O)n(CCCN(C)C)c2cc(OC)c(OC)cc12 [Compound 46]
[1]
  anti-tumor activity in vivo: good anti-tumor activity in vivo
[2]; MTT assay, 72 h incubation, MDA-MB-435 cells
  MDA-MB-435 IC50: 0.267 µg/mL
[2]; [6]
  MDA-MB-435 100 μg/mL IC %: 85.86%
[3]; MTT assay, 72 h incubation, A549 cells
  A549 IC50: 12.52 µg/mL
[3]; [7]
  A549 100 μg/mL IC %: 68.78%
[4]; MTT assay, 72 h incubation, Colo205 cells
  Colo205 IC50: 22.18 µg/mL
[4]; [8]
  Colo205 100 μg/mL IC %: 87.44%
[5]; MTT assay, 72 h incubation, HepG2 cells
  HepG2 IC50: 12.02 µg/mL
[5]; [9]
  HepG2 100 μg/mL IC %: 90.77%
